Assay: xn = mol fraction of the nth substance listed
Details: Liquid, Vibrating tube method

CCCCCCC [heptane] + O=C=O
Details | mass density [kg/m3]
312.02 K, 10986 kPa, x2 = 0.9496 | 729.05
312.02 K, 12001 kPa, x2 = 0.9496 | 747.88
312.02 K, 13001 kPa, x2 = 0.9496 | 763.05
312.02 K, 13981 kPa, x2 = 0.9496 | 776.11
312.02 K, 15000 kPa, x2 = 0.9496 | 787.02
312.02 K, 16006 kPa, x2 = 0.9496 | 797.48
312.02 K, 16997 kPa, x2 = 0.9496 | 806.48
312.02 K, 18005 kPa, x2 = 0.9496 | 814.74
312.02 K, 19001 kPa, x2 = 0.9496 | 822.53
312.02 K, 19995 kPa, x2 = 0.9496 | 829.62
312.02 K, 20996 kPa, x2 = 0.9496 | 836.32
312.02 K, 22002 kPa, x2 = 0.9496 | 842.78
312.02 K, 23003 kPa, x2 = 0.9496 | 848.74
312.02 K, 24007 kPa, x2 = 0.9496 | 854.47
312.02 K, 24361 kPa, x2 = 0.9496 | 856.44
312.94 K, 5011 kPa, x2 = 0.3148 | 693.37
312.94 K, 6008 kPa, x2 = 0.3148 | 694.74
312.94 K, 7004 kPa, x2 = 0.3148 | 696.16
312.94 K, 8002 kPa, x2 = 0.3148 | 697.62
312.94 K, 8997 kPa, x2 = 0.3148 | 699.03
312.94 K, 9991 kPa, x2 = 0.3148 | 700.6
312.94 K, 11000 kPa, x2 = 0.3148 | 701.81
312.94 K, 12009 kPa, x2 = 0.3148 | 703.08
312.94 K, 13002 kPa, x2 = 0.3148 | 704.39
312.94 K, 13992 kPa, x2 = 0.3148 | 705.63
312.94 K, 15009 kPa, x2 = 0.3148 | 706.99
312.94 K, 16009 kPa, x2 = 0.3148 | 708.23
312.94 K, 16997 kPa, x2 = 0.3148 | 709.2
312.94 K, 18018 kPa, x2 = 0.3148 | 710.45
312.94 K, 19015 kPa, x2 = 0.3148 | 711.73
312.94 K, 20006 kPa, x2 = 0.3148 | 712.83
312.94 K, 21008 kPa, x2 = 0.3148 | 713.93
312.94 K, 22010 kPa, x2 = 0.3148 | 715.06
312.94 K, 23004 kPa, x2 = 0.3148 | 716.14
312.94 K, 24017 kPa, x2 = 0.3148 | 717.34
312.94 K, 24997 kPa, x2 = 0.3148 | 718.41
312.98 K, 7014 kPa, x2 = 0.7514 | 729.2
312.98 K, 8012 kPa, x2 = 0.7514 | 733.47
312.98 K, 8996 kPa, x2 = 0.7514 | 737.34
312.98 K, 10005 kPa, x2 = 0.7514 | 741.22
312.98 K, 10989 kPa, x2 = 0.7514 | 744.88
312.98 K, 12007 kPa, x2 = 0.7514 | 748.38
312.98 K, 12994 kPa, x2 = 0.7514 | 751.74
312.98 K, 14005 kPa, x2 = 0.7514 | 754.92
312.98 K, 14990 kPa, x2 = 0.7514 | 758
312.98 K, 16009 kPa, x2 = 0.7514 | 761.15
312.98 K, 17002 kPa, x2 = 0.7514 | 764.01
312.98 K, 17990 kPa, x2 = 0.7514 | 766.8
312.98 K, 19008 kPa, x2 = 0.7514 | 769.54
312.98 K, 20006 kPa, x2 = 0.7514 | 772.19
312.98 K, 21018 kPa, x2 = 0.7514 | 774.69
312.98 K, 21997 kPa, x2 = 0.7514 | 777.23
312.98 K, 23004 kPa, x2 = 0.7514 | 779.67
312.98 K, 23994 kPa, x2 = 0.7514 | 782.07
312.98 K, 24571 kPa, x2 = 0.7514 | 783.46
313.03 K, 5011 kPa, x2 = 0.5085 | 706.14
313.03 K, 6005 kPa, x2 = 0.5085 | 708.31
313.03 K, 7004 kPa, x2 = 0.5085 | 710.37
313.03 K, 8011 kPa, x2 = 0.5085 | 712.42
313.03 K, 8996 kPa, x2 = 0.5085 | 714.37
313.03 K, 10001 kPa, x2 = 0.5085 | 716.4
313.03 K, 11006 kPa, x2 = 0.5085 | 718.29
313.03 K, 11994 kPa, x2 = 0.5085 | 720.05
313.03 K, 13000 kPa, x2 = 0.5085 | 721.92
313.03 K, 14002 kPa, x2 = 0.5085 | 723.71
313.03 K, 15010 kPa, x2 = 0.5085 | 725.36
313.03 K, 16006 kPa, x2 = 0.5085 | 727.16
313.03 K, 17002 kPa, x2 = 0.5085 | 728.84
313.03 K, 18023 kPa, x2 = 0.5085 | 730.55
313.03 K, 19009 kPa, x2 = 0.5085 | 732.08
313.03 K, 20003 kPa, x2 = 0.5085 | 733.69
313.03 K, 21000 kPa, x2 = 0.5085 | 735.25
313.03 K, 22016 kPa, x2 = 0.5085 | 736.75
313.03 K, 23006 kPa, x2 = 0.5085 | 738.31
313.03 K, 24019 kPa, x2 = 0.5085 | 739.74
313.03 K, 25004 kPa, x2 = 0.5085 | 741.18
313.08 K, 2007 kPa, x2 = 0.0218 | 670.88
313.08 K, 3009 kPa, x2 = 0.0218 | 671.95
313.08 K, 4008 kPa, x2 = 0.0218 | 673.02
313.08 K, 5014 kPa, x2 = 0.0218 | 674.05
313.08 K, 6010 kPa, x2 = 0.0218 | 675.07
313.08 K, 7005 kPa, x2 = 0.0218 | 676.19
313.08 K, 8174 kPa, x2 = 0.0218 | 677.13
313.08 K, 9005 kPa, x2 = 0.0218 | 678.13
313.08 K, 10008 kPa, x2 = 0.0218 | 679.18
313.08 K, 11000 kPa, x2 = 0.0218 | 680.15
313.08 K, 12009 kPa, x2 = 0.0218 | 681.11
313.08 K, 13002 kPa, x2 = 0.0218 | 682.02
313.08 K, 14006 kPa, x2 = 0.0218 | 683
313.08 K, 15004 kPa, x2 = 0.0218 | 683.85
313.08 K, 16007 kPa, x2 = 0.0218 | 684.89
313.08 K, 17002 kPa, x2 = 0.0218 | 685.71
313.08 K, 18005 kPa, x2 = 0.0218 | 686.44
313.08 K, 19010 kPa, x2 = 0.0218 | 687.37
313.08 K, 20009 kPa, x2 = 0.0218 | 688.24
313.08 K, 21004 kPa, x2 = 0.0218 | 689.1
313.08 K, 22010 kPa, x2 = 0.0218 | 689.97
313.08 K, 23003 kPa, x2 = 0.0218 | 690.81
313.08 K, 24007 kPa, x2 = 0.0218 | 691.63
313.08 K, 24906 kPa, x2 = 0.0218 | 692.41
322.85 K, 5012 kPa, x2 = 0.3148 | 682.49
322.85 K, 6012 kPa, x2 = 0.3148 | 684.11
322.85 K, 7008 kPa, x2 = 0.3148 | 685.75
322.85 K, 8009 kPa, x2 = 0.3148 | 687.35
322.85 K, 8996 kPa, x2 = 0.3148 | 688.86
322.85 K, 10005 kPa, x2 = 0.3148 | 690.36
322.85 K, 11012 kPa, x2 = 0.3148 | 691.87
322.85 K, 11996 kPa, x2 = 0.3148 | 693.32
322.85 K, 13003 kPa, x2 = 0.3148 | 694.75
322.85 K, 14006 kPa, x2 = 0.3148 | 696.09
322.85 K, 15010 kPa, x2 = 0.3148 | 697.48
322.85 K, 16003 kPa, x2 = 0.3148 | 698.79
322.85 K, 17009 kPa, x2 = 0.3148 | 700.14
322.85 K, 18001 kPa, x2 = 0.3148 | 701.39
322.85 K, 19012 kPa, x2 = 0.3148 | 702.67
322.85 K, 20007 kPa, x2 = 0.3148 | 703.86
322.85 K, 21000 kPa, x2 = 0.3148 | 705.12
322.85 K, 22017 kPa, x2 = 0.3148 | 706.33
322.85 K, 23010 kPa, x2 = 0.3148 | 707.55
322.85 K, 23985 kPa, x2 = 0.3148 | 708.71
322.85 K, 25004 kPa, x2 = 0.3148 | 709.93
322.91 K, 8013 kPa, x2 = 0.7514 | 707.83
322.91 K, 8994 kPa, x2 = 0.7514 | 712.85
322.91 K, 10015 kPa, x2 = 0.7514 | 717.65
322.91 K, 10996 kPa, x2 = 0.7514 | 722.08
322.91 K, 12005 kPa, x2 = 0.7514 | 726.29
322.91 K, 13025 kPa, x2 = 0.7514 | 730.31
322.91 K, 13986 kPa, x2 = 0.7514 | 733.99
322.91 K, 15009 kPa, x2 = 0.7514 | 737.66
322.91 K, 16002 kPa, x2 = 0.7514 | 741.14
322.91 K, 17007 kPa, x2 = 0.7514 | 744.51
322.91 K, 17997 kPa, x2 = 0.7514 | 747.63
322.91 K, 19009 kPa, x2 = 0.7514 | 750.74
322.91 K, 20004 kPa, x2 = 0.7514 | 753.71
322.91 K, 21008 kPa, x2 = 0.7514 | 756.6

— the NIST ThermoML archive (doi:10.1021/je400056z)
